These results are taken from ChEMBL document CHEMBL1201862, “PubChem BioAssay data set” (2004).

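Following 48 hours of exposure in 96-well plates, responses at five concentrations were used to interpolate endpoints linearly. GI50: concentration for 50% inhibition of growth.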 Activity calls are given as the source filed them. Cut-off read from the data, not from the text of the source: active = GI50 up to about 1.1 µM and inactive = higher. Bounds are passed on as bounds.

What all share (assay): NCI-60 cell line screen, 48 h
The test system of assay [1] is SNB-75.
Assay [2] concerns BT-549.
The subject of assay [3] is 786-0.
Assay [4] deals with COLO 205.
The subject of assay [5] is NCI-H226.
Assay [6] concerns LOX IMVI.
Assay [7] concerns M19-MEL.
The test system of assay [8] is HCT-116.
For assay [9], the system named is A498.
The test system of assay [10] is SN12C.
The test system of assay [11] is HT-29.
Assay [12] deals with Hs-578T.
The subject of assay [13] is MDA-MB-435.
Assay [14] relates to Malme-3M.
For assay [15], the system named is NCI-H460.
For assay [16], the system named is SF-295.
Assay [17] has as its system SF-539.
Assay [18] has as its system HOP-62.
Assay [19] relates to MOLT-4.
For assay [20], the system named is SK-MEL-5.

Consider `COC1/C=C\C=C(/C)C(=O)NC2=CC(=O)C(NCCCl)=C(CC(C)CC(OC)C(O)C(C)/C=C(/C)C1OC(N)=O)C2=O` (stereo not given), for which the GI50 is 0.413 µM (active) in [1]; 1.25 µM (inactive) in [2]; 0.323 µM (active) in assay [3]; < 0.0126 µM (active) in assay [4]; 0.729 µM (active) in assay [5]; 0.0857 µM (active) in assay [6]. Besides, the GI50 was 0.0366 µM (active) in [7]; 0.0489 µM (active) in assay [8]; 0.873 µM (active) in [9]; 0.069 µM (active) in assay [10]; 0.0158 µM (active) in assay [11]; 4.89 µM (inactive) in [12]. For the same molecule, the GI50 is 0.0526 µM (active) in assay [13]; 0.0345 µM (active) in [14]; 0.0991 µM (active) in assay [15]; 0.743 µM (active) in assay [16]; 0.127 µM (active) in [17]; 0.339 µM (active) in assay [18]. For the same molecule, the GI50 in [19] was 0.052 µM (active); in assay [20], 0.34 µM (active).

`COC(=O)C12OCC34C(CC5C(C)=CC(=O)C(O)C5(C)C3C(O)C1O)OC(=O)C(OC(=O)CC(C)C)C24` (stereo not given): the GI50 was 0.00216 µM (active) in [1]; 0.000463 µM (active) in [2]; 0.0468 µM (active) in [3]; 0.00237 µM (active) in [4]; 0.00109 µM (active) in [5]; 0.000548 µM (active) in assay [6]. For the same molecule, the GI50 in assay [7] was 0.00134 µM (active); in [9] it was 0.002 µM (active); in assay [10], 0.00366 µM (active); in assay [11], 0.000973 µM (active); in assay [12], 0.000164 µM (active); in assay [13], 0.00103 µM (active). Besides, the GI50 in assay [14] was 0.00126 µM (active); in [15], 0.00046 µM (active); in assay [16], 0.00158 µM (active); in assay [17] it was 0.00064 µM (active); in assay [18], 0.00222 µM (active); in assay [20], 0.000624 µM (active).

For the molecule `COc1cc(C2C(Cl)C(=O)N2NC(=O)c2ccc(N)cc2)cc(Br)c1O` (stereo not given), the GI50 in assay [1] was 17.2 µM (inactive); in assay [3] it was 13.3 µM (inactive); in assay [4] it was 18.7 µM (inactive); in [5] it was 21.5 µM (inactive); in assay [6], 2.75 µM (inactive); in [7], 17.9 µM (inactive). Further, the GI50 in assay [8] is 10.4 µM (inactive); in assay [9] it was 37.2 µM (inactive); in [10] it was 17 µM (inactive); in assay [11], 19.8 µM (inactive); in assay [14], 14.5 µM (inactive); in [15] it was 16.6 µM (inactive). The GI50 in assay [16] was 14.6 µM (inactive); in assay [17] it was 19.5 µM (inactive); in [18] it was 15.1 µM (inactive); in assay [19], 4.23 µM (inactive); in [20], 17.9 µM (inactive).

Regarding `N#CCc1ccc(/C(C#N)=C2/OC(=N)C(c3ccc(CC#N)cc3)C2=O)cc1` (stereo not given), the GI50 in assay [1], in assay [3], in assay [4], in [5], in assay [6] and in assay [7] was > 100 µM (inactive) in each case. Besides, the GI50 in assay [8], in [9], in [10], in assay [11], in assay [14] and in assay [15] was > 100 µM (inactive) each time. In addition, the GI50 in assay [16], in [17], in [18], in assay [19] and in [20] was > 100 µM (inactive) in each case.

In the case of `CC(=O)Nc1ccc(-c2nnc(SCC(=O)Nc3ccccc3Cl)o2)cc1`, the GI50 in assay [1], in assay [3], in [4], in assay [5], in assay [6] and in [7] was > 100 µM (inactive) throughout. Moreover, the GI50 in assay [8] is 44.1 µM (inactive); in [9], > 100 µM (inactive); in assay [10] it was > 100 µM (inactive); in [11] it was 80.4 µM (inactive); in assay [14] it was > 100 µM (inactive); in assay [15], > 100 µM (inactive). Also, the GI50 in [16], in assay [17], in assay [18], in assay [19] and in assay [20] was > 100 µM (inactive) throughout.

In the case of `C[S+](C)C1(c2ccccc2)C(=O)c2ccccc2C1=O`, the GI50 is 29.2 µM (inactive) in [1]; 11.8 µM (inactive) in assay [2]; > 100 µM (inactive) in assay [3]; > 100 µM (inactive) in assay [4]; 48 µM (inactive) in assay [5]; 38.9 µM (inactive) in [6]. Moreover, the GI50 in [7] was > 100 µM (inactive); in [8], > 54.3 µM (inactive); in assay [9], 73.8 µM (inactive); in assay [10], > 100 µM (inactive); in [11], > 100 µM (inactive); in assay [12], 24.4 µM (inactive). Moreover, the GI50 in [13] is 42.6 µM (inactive); in assay [14], > 100 µM (inactive); in assay [15], > 55.6 µM (inactive); in [16], 36.1 µM (inactive); in assay [17], 28.7 µM (inactive); in assay [18] it was > 56.9 µM (inactive). The GI50 in assay [19] was > 83.2 µM (inactive); in assay [20], > 38.5 µM (inactive).

As to `Cc1ccc(C(=O)OC(C)C)cc1/N=N/N(C)C`, the GI50 was > 100 µM (inactive) in [2]; > 100 µM (inactive) in assay [3]; > 100 µM (inactive) in assay [4]; > 70 µM (inactive) in assay [6]; 97.7 µM (inactive) in [7]; > 67.9 µM (inactive) in [8]. For the same molecule, the GI50 in [10] is 97.5 µM (inactive); in assay [11], > 100 µM (inactive); in assay [12] it was > 100 µM (inactive); in [13] it was > 100 µM (inactive); in assay [14] it was > 100 µM (inactive); in [15] it was > 100 µM (inactive). In addition, the GI50 is 58.6 µM (inactive) in assay [16]; > 100 µM (inactive) in [17]; 97.5 µM (inactive) in assay [18]; > 100 µM (inactive) in assay [19]; > 64.9 µM (inactive) in assay [20].

On to `CO[C@@H]1[C@H](OC(=O)NC(=O)CCl)CC[C@]2(CO2)[C@H]1[C@@]1(C)O[C@@H]1CC=C(C)C` [O-CHLOROACETYLCARBAMOYLFUMAGILLOL], for which the GI50 was 7.96 µM (inactive) in [1]; 14.6 µM (inactive) in assay [2]; 12.6 µM (inactive) in [3]; 14.2 µM (inactive) in [4]; 19 µM (inactive) in assay [5]; 5.05 µM (inactive) in assay [6]. Moreover, the GI50 in assay [7] was 6.49 µM (inactive); in [9] it was 17.2 µM (inactive); in assay [10] it was 13.7 µM (inactive); in [11], 5.66 µM (inactive); in assay [12] it was 19.9 µM (inactive); in assay [13], 11.7 µM (inactive). For the same molecule, the GI50 is 5.97 µM (inactive) in assay [14]; 2.04 µM (inactive) in assay [15]; 5.65 µM (inactive) in [16]; 10.6 µM (inactive) in assay [17]; 12.9 µM (inactive) in assay [18]; 6.56 µM (inactive) in [19]. Also, the GI50 in assay [20] was 8.83 µM (inactive).
